In patent publication US20250215029A1 (Recludix Pharma, Inc., priority 2022, published 2025):
Where two headings read alike, the source gives them in different places.

What was measured:
[1] = biological target: T1, Recombinant STAT6 protein (STAT6 (W123-T658)) (Homo sapiens, UniProt P42226); assay: STAT6 Fluorescence Polarization (FP) Assay; type: binding; conditions: 45-minute incubation
T1 construct: Recombinant STAT6 protein (STAT6 (W123-T658))
T1 sequence (P42226 123-658): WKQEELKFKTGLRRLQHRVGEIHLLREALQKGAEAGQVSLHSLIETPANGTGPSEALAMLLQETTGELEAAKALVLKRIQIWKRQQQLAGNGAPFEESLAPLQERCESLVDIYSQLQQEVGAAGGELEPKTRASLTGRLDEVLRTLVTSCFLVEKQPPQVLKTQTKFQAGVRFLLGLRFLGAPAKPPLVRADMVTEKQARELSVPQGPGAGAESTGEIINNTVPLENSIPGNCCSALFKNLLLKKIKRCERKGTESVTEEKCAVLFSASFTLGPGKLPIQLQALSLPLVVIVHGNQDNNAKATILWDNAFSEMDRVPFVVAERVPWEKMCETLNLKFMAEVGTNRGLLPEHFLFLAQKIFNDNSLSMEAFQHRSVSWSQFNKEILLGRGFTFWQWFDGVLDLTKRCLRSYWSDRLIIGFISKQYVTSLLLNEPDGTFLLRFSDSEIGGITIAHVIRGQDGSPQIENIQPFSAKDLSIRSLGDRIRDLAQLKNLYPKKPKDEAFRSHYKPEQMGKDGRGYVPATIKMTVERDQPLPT
Procedure, shortened: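 Protein-probe mix (250 nM STAT6 W123-T658, 2 nM 5-FAM-pTyr peptide) in 10 mM HEPES pH 7.4, 50 mM NaCl, 1 mM EDTA, 0.05% Tween 20, 2 mM DTT; added to compound dilution series, 1% DMSO final; 45 min RT; FP read; IC50 via nonlinear regression.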

[2] = biological target: T2, Recombinant STAT3 protein (STAT3 (G127-I722)) (Homo sapiens, UniProt P40763); assay: STAT3 Fluorescence Polarization (FP) Assay; type: binding; conditions: probe 5-FAM-GpYLPQTV-NH2 2 nM, 45-minute incubation
T2 construct: Recombinant STAT3 protein (STAT3 (G127-I722))
T2 sequence (P40763 127-722): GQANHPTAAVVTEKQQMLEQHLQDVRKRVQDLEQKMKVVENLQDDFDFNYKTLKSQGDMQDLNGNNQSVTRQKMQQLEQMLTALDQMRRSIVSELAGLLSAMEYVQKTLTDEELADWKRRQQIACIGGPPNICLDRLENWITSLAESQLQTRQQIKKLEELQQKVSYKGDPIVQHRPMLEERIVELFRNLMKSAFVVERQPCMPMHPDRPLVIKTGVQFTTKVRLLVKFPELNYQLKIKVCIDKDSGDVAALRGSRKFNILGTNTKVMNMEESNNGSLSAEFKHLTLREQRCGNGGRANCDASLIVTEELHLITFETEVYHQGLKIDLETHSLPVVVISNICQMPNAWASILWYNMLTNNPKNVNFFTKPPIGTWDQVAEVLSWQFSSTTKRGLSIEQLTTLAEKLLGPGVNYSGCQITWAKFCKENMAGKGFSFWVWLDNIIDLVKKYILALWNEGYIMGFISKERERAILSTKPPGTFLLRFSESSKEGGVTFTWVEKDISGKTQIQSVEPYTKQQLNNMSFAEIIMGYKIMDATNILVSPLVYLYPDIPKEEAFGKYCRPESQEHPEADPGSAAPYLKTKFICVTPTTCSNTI
Procedure, shortened: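 Read-out is fluorescence polarization (mP) after 45 min at room temperature, with IC50 fitted by nonlinear regression against log compound concentration. Mixture: 25 nM STAT3 (G127-I722), 2 nM 5-FAM-GpYLPQTV-NH2 phosphopeptide, 10 mM HEPES pH 7.4 buffer, 1% DMSO.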

[3] = STAT6 (W123-T658) 250 nM, probe 5-FAM-Ap[…]-NH2 2 nM, read-out: STAT6 (FP assay IC50 class)
[4] = STAT3 (G127-I722) 25 nM, read-out: STAT3 (FP assay IC50 class)
[5] = STAT6 250 nM, probe 5-FAM-Ap[…]-NH2 2 nM, read-out: STAT6 (FP assay IC50)
[6] = STAT3 25 nM, read-out: STAT3 (FP assay IC50)

SMILES	IC50 [1, 3] [µM]	IC50 [2, 4] [nM]	IC50 [1, 5] [µM]	IC50 [2, 6] [nM]	IC50 ([1]; STAT6 (W123-T658) 250 nM, probe 5-FAM-ApYKPFQDLI-NH2 2 nM, read-out: STAT6 (FP assay IC50 class)) [µM]
Cc1c(C#N)cncc1C1CN(C(=O)[C@@H]2CC[C@@H]3CCC[C@H](NC(=O)c4cc5cc(CP(=O)(O)O)ccc5s4)C(=O)N32)C1 [Compound 510, ((2-(((3S,6S,9aS)-3-(3-(5-cyano-4-methylpyridin-3-yl)azetidine-1-carbonyl)-5-oxooctahydro-1H-pyrrolo[1,2-a]azepin-6-yl)carbamoyl)benzo[b]thiophen-5-yl)methyl)phosphonic acid]	3 to 30	1000 to 10000			
C[C@@H]1[C@@H](n2ccnc2)CN1C(=O)[C@@H]1CC[C@@H]2CCC[C@H](NC(=O)c3cc4cc(C(F)(F)P(=O)(O)O)ccc4s3)C(=O)N21 [Compound 81, ((2-(((3S,6S,9aS)-3-((2R,3S)-3-(1H-imidazol-1-yl)-2-methylazetidine-1-carbonyl)-5-oxooctahydro-1H-pyrrolo[1,2-a]azepin-6-yl)carbamoyl)benzo[b]thiophen-5-yl)difluoromethyl) phosphonic acid]			0.3 to 3	< 100	
N#C[C@@H]1CN(C(=O)[C@@H]2CCC[C@@H]3CCC[C@H](NC(=O)c4cc5cc(C(F)P(=O)(O)O)ccc5s4)C(=O)N32)C[C@H]1c1ccccc1 (relative stereo) [Compound 551, ((2-(((4S,7S,10aS)-4-((rel-trans)-3-cyano-4-phenylpyrrolidine-1-carbonyl)-6-oxodecahydropyrido[1,2-a]azepin-7-yl)carbamoyl)benzo[b]thiophen-5-yl)fluoromethyl)phosphonic acid]	≤ 0.3	1000 to 10000			
CC(=O)N1C[C@H](NC(=O)[C@@H]2CC[C@@H]3CCC[C@H](NC(=O)c4cc5cc(CP(=O)(O)O)ccc5s4)C(=O)N32)[C@@H](F)C1 [Compound 219, ((2-(((3S,6S,9aS)-3-(((3S,4S)-1-acetyl-4-fluoropyrrolidin-3-yl)carbamoyl)-5-oxooctahydro-1H-pyrrolo[1,2-a]azepin-6-yl)carbamoyl)benzo[b]thiophen-5-yl)methyl)phosphonic acid]	3 to 30	1000 to 10000			
COc1ccncc1C1CN(C(=O)[C@@H]2CC[C@@H]3CCC[C@H](NC(=O)c4cc5cc(C(F)P(=O)(O)O)ccc5s4)C(=O)N32)C1 (stereo partly drawn) [Compound 206, (fluoro(2-(((3S,6S,9aS)-3-(3-(4-methoxypyridin-3-yl)azetidine-1-carbonyl)-5-oxooctahydro-1H-pyrrolo[1,2-a]azepin-6-yl)carbamoyl)benzo[b]thiophen-5-yl)methyl)phosphonic acid]	3 to 30	< 100			
C[C@H]1C[C@H]2CC[C@@H](C(=O)N3CC[C@@H](c4ccccc4)C3)N2C(=O)[C@@H](NC(=O)c2cc3cc(C(F)(F)P(=O)(O)O)ccc3s2)CC1O (stereo in doubt) [Compound 101, (difluoro(2-(((3S,6S,8S,9S, 10aR)-8-hydroxy-9-methyl-5-oxo-3-((S)-3-phenylpyrrolidine-1-carbonyl)decahydropyrrolo [1,2-a]azocin-6-yl)carbamoyl)benzo[b]thiophen-5-yl)methyl) phosphonic acid]			0.3 to 3	100 to 1000	
O=C(N[C@H]1CC[C@@H](O)C[C@H]2CC[C@@H](C(=O)N3CC(C(=O)N4CCOCC4)C3)N2C1=O)c1cc2cc(C(F)(F)P(=O)(O)O)ccc2s1 [Compound 2, (difluoro(2-(((3S,6S,9R,10aR)-9-hydroxy-3-(3-(morpholine-4-carbonyl)azetidine-1-carbonyl)-5-oxodecahydropyrrolo [1,2-a]azocin-6-yl)carbamoyl)benzo[b]thiophen-5-yl)methyl) phosphonic acid]			3 to 30	100 to 1000	
O=C(N[C@H]1CCC[C@H]2CC[C@@H](C(=O)N3CC(c4ccccc4O)C3)N2C1=O)c1cc2cc(C(F)P(=O)(O)O)ccc2s1 (stereo partly drawn) [Compound 608, (fluoro(2-(((3S,6S,9aS)-3-(3-(2-hydroxyphenyl)azetidine-1-carbonyl)-5-oxooctahydro-1H-pyrrolo[1,2-a]azepin-6-yl)carbamoyl)benzo [b]thiophen-5-yl)methyl) phosphonic acid]	0.3 to 3	< 100			
CS(=N)(=O)CC1CN(C(=O)[C@@H]2CC[C@@H]3CCC[C@H](NC(=O)c4cc5cc(C(F)(F)P(=O)(O)O)ccc5s4)C(=O)N32)C1 (stereo partly drawn) [Compound 32, (difluoro(2-(((3S,6S,9aS)-3-(3-((S-methyl-sulfonimidoyl)methyl)azetidine-1-carbonyl)-5-oxooctahydro-1H-pyrrolo[1,2-a]azepin-6-yl)carbamoyl)benzo[b]thiophen-5-yl)methyl) phosphonic acid]			3 to 30	< 100	
O=C(N[C@H]1CCCC[C@H]2CC[C@@H](C(=O)N3CC(NC(=O)C4CC4)(c4ccccn4)C3)N2C1=O)c1cc2cc(C(F)(F)P(=O)(O)O)ccc2s1 [Compound 123, ((2-(((3S,6S, 10aS)-3-(3-(cyclopropane-carboxamido)-3-(pyridin-2-yl)azetidine-1-carbonyl)-5-oxodeca-hydropyrrolo [1,2-a]azocin-6-yl)carbamoyl)benzo[b]thiophen-5-yl)difluoromethyl) phosphonic acid]			3 to 30	< 100	
Cn1cc(F)c(N2C(=O)N(C(=O)[C@@H]3CC[C@@H]4CCCC[C@H](NC(=O)c5cc6cc(C(F)P(=O)(O)O)ccc6s5)C(=O)N43)C3(CC3)C2=O)cc1=O (stereo partly drawn) [Compound 581, (fluoro(2-(((3S,6S,10aS)-3-(6-(5-fluoro-1-methyl-2-oxo-1,2-dihydropyridin-4-yl)-5,7-dioxo-4,6-diazaspiro[2.4]heptane-4-carbonyl)-5-oxodecahydropyrrolo[1,2-a]azocin-6-yl)carbamoyl)benzo[b]thiophen-5-yl)methyl)phosphonic acid]	0.3 to 3	1000 to 10000			
N#C[C@H]1CN(C(=O)[C@@H]2CC[C@@H]3CCCC[C@H](NC(=O)c4ccc5ccc(C(F)(F)P(=O)(O)O)cc5c4)C(=O)N32)C[C@@H]1c1ccccc1 (mixture of isomers) [Compound 28, ((7-(((3S,6S,10aS)-3-(rel- trans)-3-cyano-4-phenylpyrrolidine-1-carbonyl)-5-oxodecahydropyrrolo [1,2-a]azocin-6-yl)carbamoyl)naphthalen-2-yl) difluoromethyl) phosphonic acid]			≤ 0.3	1000 to 10000	
O=C(N[C@H]1CCC[C@H]2CC[C@@H](C(=O)N3CC(c4cc(F)ccc4F)C3)N2C1=O)c1cc2cc(C(F)P(=O)(O)O)ccc2s1 (stereo partly drawn) [Compound 592, ((2-(((3S,6S,9aS)-3-(3-(2,5-difluorophenyl)azetidine-1-carbonyl)-5-oxooctahydro-1H-pyrrolo[1,2-a]azepin-6-yl)carbamoyl)benzo[b]thiophen-5-yl)fluoromethyl)phosphonic acid]	3 to 30	100 to 1000			
O=C(N[C@H]1CCC[C@H]2CC[C@@H](C(=O)NCc3cnc4[nH]cnc4c3)N2C1=O)c1cc2cc(C(F)(F)P(=O)(O)O)ccc2s1 [Compound 1118, ((2-(((3S,6S,9aS)-3-(((3H-imidazo[4,5-b]pyridin-6-yl)methyl)carbamoyl)-5-oxooctahydro-1H-pyrrolo[1,2-a]azepin-6-yl)carbamoyl)benzo[b]thiophen-5-yl)difluoromethyl)phosphonic acid]	0.3 to 3	< 100			
O=C(N[C@H]1CCCC[C@H]2CC[C@@H](C(=O)N3CC(c4ccccc4)CC34CC4)N2C1=O)c1ccc2cnc(CP(=O)(O)O)cc2c1 (stereo partly drawn) [Compound 570, ((6-(((3S,6S,10aS)-5-oxo-3-(6-phenyl-4-azaspiro[2.4]heptane-4-carbonyl)decahydropyrrolo[1,2-a]azocin-6-yl)carbamoyl)isoquinolin-3-yl)methyl)phosphonic acid]	3 to 30	1000 to 10000			
CC(C)[C@@H]1CC[C@H](NC(=O)c2cc3cc(C(F)P(=O)(O)O)ccc3s2)C(=O)N2[C@H](CC[C@H]2C(=O)N2C[C@H](c3ccccc3)[C@@H](C#N)C2)C1 (single isomer, unassigned) [Compound 212]		1000 to 10000			≤ 0.3
